Data published in US12318452B2, “Degraders of WEE1 kinase” (DANA-FARBER CANCER INSTITUTE, INC., priority 2018, dated 2025).

Experiments:
[1] = system: Ikaros (IKZF1), Aiolos (IKZF3); test: IKZF1 and IKZF3 degradation by immunoblot in MOLT4 cells; assay type: cell-based
Method: Whole cell lysates for immunoblotting were prepared by pelleting cells from each cell line at 4° C. (300 g) for 5 minutes. The resulting cell pellets were washed 1× with ice-cold PBS and then resuspended in RIPA lysis buffer (Sigma, cat #R0278) supplemented with protease and phosphatase inhibitor tablets (Roche cat #4906845001). Lysates were clarified at 14,000 rpm for 15 minutes at 4° C. prior to quantification by BCA assay (Pierce™, cat #23225). Whole cell lysates were loaded into Bolt 4-12% Bis-Tris Gels (Thermo Fisher, cat #NW04120BOX) and separated by electrophoreses at 95 V for 1.5 hours. The gels were transferred to a nitrocellulose membrane using the iBlot® Gel Transfer at P3 for 7 minutes (Thermo Fisher, cat #IB23001) and then blocked for 1 hour at room temperature in Odyssey® blocking buffer (LICOR® Biosciences, cat #927-50010). Membranes were probed using antibodies against the relevant proteins at 4° C. overnight in 20% Odyssey® Blocking Buffer in 1×TBST. Membranes were then washed three times with 1×TBST (at least 5 minutes per wash) followed by incubation with the IRDye® goat anti-mouse (LICOR®, cat #926-32210) or goat anti-rabbit (LICOR®, cat #926-32211) secondary antibody (diluted 1:10,000) in 20% Odyssey® Blocking Buffer in 1×TBST for 1 hour at room temperature. […]

[2] = system: MCF10A cells; test: Image-based cell cycle assay in non-transformed mammary epithelial cells; settings: data not shown
Method: HCC1806, BT549, and Kuramochi cells were maintained in RPMI (Corning®, Corning, NY) supplemented with 10% fetal bovine serum (FBS) (Life Technologies™, Carlsbad, CA) and 1% penicillin/streptomycin (Corning, Corning®, NY). OVCAR8 cells were maintained as above with the addition of 2 mM L-glutamine (Life Technologies™, Carlsbad, CA). MCF10A cells were maintained in a 1:1 mix of DMEM:F12 supplemented with 5% horse serum (Life Technologies™ Carlsbad, CA), 1% penicillin/streptomycin (Corning®, Corning, NY), 20 ng/ml EGF (Peprotech®, Rocky Hill, NJ), 500 ng/ml hydrocortisone (Sigma-Aldrich®, St. Louis, MO), 10 μg/ml insulin (Sigma-Aldrich®, St. Louis, MO), and 100 ng/ml cholera toxin (Sigma-Aldrich®, St. Louis, MO). COV362 cells were maintained in DMEM (Corning®, Corning, NY) supplemented with 10% FBS (Life Technologies™, Carlsbad, CA), 1% penicillin/streptomycin (Corning®, Corning, NY) and 2 mM L-glutamine (Life Technologies™, Carlsbad, CA). The OCE1 cells were maintained in FOMI (Wit-Fo) (PMID: 24303006) supplemented with 25 ng/ml cholera toxin (Sigma-Aldrich®, St. Louis, MO). […]
Fixed cells were imaged with a 10× objective using an Operetta microscope and analyzed using the Columbus image data storage and analysis system (PerkinElmer®, Waltham, MA). […] The average LDR, EdU and phospho-histone H3 intensities within the nuclear masks were determined. […]

In the case of `C=CCn1c(=O)c2cnc(Nc3ccc(N4CCN(CCCNc5cccc6c5C(=O)N(C5CCC(=O)NC5=O)C6=O)CC4)cc3)nc2n1-c1cccc(C(C)(C)O)n1` (stereo not drawn) [Compound 13, 4-((3-(4-(4-((2-allyl-1-(6-(2-hydroxypropan-2-yl)pyridin-2-yl)-3-oxo-2,3-dihydro-1H-pyrazolo[3,4-d]pyrimidin-6-yl)amino)phenyl)piperazin-1-yl)propyl)amino)-2-(2,6-dioxopiperidin-3-yl)isoindoline-1,3-dione], the “IKZF1 / IKZF3 degradation after 24 hrs” value ([1]; 24 hrs of drug exposure) was “degradation of both IKZF1 and IKZF3 was apparent”, the “IKZF1 / IKZF3 degradation at short time points” value ([1]; short time points (5-hour)) was “no degradation of either IKZF1 or IKZF3” and the “Effect on mitotic cell number” value [2] was “very little effect”.
